Experimental data taken from patent publication US7179836B2, “Chemical compounds” (SmithKline Beecham Corporation, priority 2001, dated 2007).

Target: Recombinant GST-Tie2 (Homo sapiens, UniProt Q02763)
Assay: Tie2 fluorescence polarization kinase activity assay (TIE2-FP)
Type: biochemical
Details: 200 μM ATP, 1 nM activated enzyme, 200 μM peptide
Protocol: Tie2 Fluorescence Polarization Kinase Activity Assay (TIE2-FP).
Activation of Recombinant Tie2 Activation:
Recombinant GST-Tie2 is activated by incubating the enzyme in 20 mM Tris-HCl, pH 7.5, 12 mM MgCl2, 100 mM NaCl, 20 μM sodium vanidate, 1 mM DTT and 300 μM ATP at room temperature for 2 hours. The activation mixture is then passed through a NAP-25 desalting column (Pharmacia Biotech cat. no. 17-0852-02) to remove the free ATP. The activated enzyme is stored as aliquots at −80° C. in 20 mM Tris-HCl, pH 7.5 and 100 mM NaCl.
The final assay conditions are 50 mM HEPES, pH 7.5, 5% DMSO (when screening compounds), 200 μM ATP, 5 mM MgCl2, 1 mM DTT, 50 μM sodium vanidate, 1 nM activated enzyme, and 200 μM peptide. IC50's of compounds are measured under subsaturating ATP (200 μM) and varing concentrations of activated Tie2 and peptide substrate (RFWKYEFWR-OH; MW 1873 Da, TFA salt). Panvera Anti-phosphotyrosine antibody (Cat#P2840) and PTK Green Tracer (Cat#P2842) are used to detect the phosphorylated peptide. Polarization is measured on a TECAN Polarion in 138-second cycles for 30 minutes at room temperature. IC50's are then determined from the % polarization using normal calculation methods.

Chain of Recombinant GST-Tie2 (Q02763 23-1124): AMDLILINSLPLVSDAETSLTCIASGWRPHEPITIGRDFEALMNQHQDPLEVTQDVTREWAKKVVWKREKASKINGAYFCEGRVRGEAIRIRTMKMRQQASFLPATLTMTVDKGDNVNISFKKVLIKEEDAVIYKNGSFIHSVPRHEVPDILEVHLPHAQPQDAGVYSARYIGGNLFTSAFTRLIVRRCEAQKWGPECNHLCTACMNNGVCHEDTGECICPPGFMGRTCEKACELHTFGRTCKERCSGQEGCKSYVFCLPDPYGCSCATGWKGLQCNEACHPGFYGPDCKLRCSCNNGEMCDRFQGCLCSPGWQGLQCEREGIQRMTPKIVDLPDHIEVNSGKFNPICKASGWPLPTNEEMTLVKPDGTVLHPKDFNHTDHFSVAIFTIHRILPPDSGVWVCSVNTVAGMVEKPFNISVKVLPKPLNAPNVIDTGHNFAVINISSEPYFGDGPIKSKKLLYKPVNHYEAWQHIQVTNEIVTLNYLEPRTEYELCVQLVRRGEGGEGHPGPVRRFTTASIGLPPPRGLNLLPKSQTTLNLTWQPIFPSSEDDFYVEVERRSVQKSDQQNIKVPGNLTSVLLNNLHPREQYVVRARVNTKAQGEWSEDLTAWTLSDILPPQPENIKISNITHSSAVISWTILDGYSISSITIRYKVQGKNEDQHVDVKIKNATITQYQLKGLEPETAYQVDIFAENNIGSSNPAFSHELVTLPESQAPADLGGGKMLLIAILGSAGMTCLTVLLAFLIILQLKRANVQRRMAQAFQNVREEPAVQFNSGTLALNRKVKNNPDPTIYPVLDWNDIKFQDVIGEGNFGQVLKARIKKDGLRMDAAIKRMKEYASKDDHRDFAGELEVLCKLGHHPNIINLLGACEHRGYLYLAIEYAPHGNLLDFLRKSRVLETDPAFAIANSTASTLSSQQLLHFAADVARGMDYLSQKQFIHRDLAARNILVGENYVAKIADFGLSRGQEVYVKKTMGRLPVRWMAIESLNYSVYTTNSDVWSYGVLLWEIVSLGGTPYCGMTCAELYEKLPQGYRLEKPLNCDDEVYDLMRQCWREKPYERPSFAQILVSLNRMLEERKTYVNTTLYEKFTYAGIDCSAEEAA

Q: NC(=O)c1c(-c2ccc(NC(=O)Nc3cc(C(F)(F)F)ccc3F)cc2)csc1N [Example 1, 2-Amino-4-{4-[3-(2-fluoro-5-trifluoromethyl-phenyl)-ureido]-phenyl}-thiophene-3-carboxylic acid amide] was tested. Which IC50 did it give?
A: < 0.1 µM
